Experimental data as given in BindingDB's records for doi:10.1021/jm00084a013 (Upjohn Laboratories, 1992).
pKi: −log10 of the molar value.

molecular target: 5-hydroxytryptamine receptor 1A (Bos taurus); test: Ability to displace [3H]-DPAT from 5-hydroxytryptamine 1A receptor in homogenates of bovine hippocampus.

Row | Structure (SMILES) | pKi
1 | CCCN(CCC)C1Cc2cccc3oc(=O)n(c23)C1 (stereo not given) | < 6.00
2 | CCCN(CCC)C1Cc2cccc3nc(SC)n(c23)C1 (stereo not given) | 6.76
3 | CCCN(CCC)C1Cc2cccc3ncn(c23)C1 (stereo not given) | 6.08
4 | O=c1[nH]c2cccc3c2n1CC(N(CC1CC1)CC1CC1)C3 (stereo not given) | 7.02
5 | CCCN(CCC)C1Cc2cccc3c2N(C1)C(=O)CN3 (stereo not given) | 7.31
6 | CCCN(CCC)C1Cc2cccc3c2N(C1)C(=O)CC3 (stereo not given) | 8.62
7 | CCCN(CCC)C1Cc2cccc3c2N(C1)C(=O)C3 (stereo not given) | 6.97
8 | CCCN(CCC)C1Cc2cccc3c2N(CC3)C1 (stereo not given) | 7.89
9 | CCCN(CCC)C1Cc2cccc3ccn(c23)C1 (stereo not given) | 6.60
10 | CCCN(CCC)C1Cc2cccc3nc(C)n(c23)C1 (stereo not given) | 5.35
11 | O=c1[nH]c2cccc3c2n1CC(NCC1CC1)C3 (stereo not given) | 7.08
12 | CCCN(CCC)C1Cc2cccc3c2N(CCC3)C1 (stereo not given) | 6.98
13 | CCCN(CCC)C1Cc2cccc3[nH]c(=O)c(=O)n(c23)C1 (stereo not given) | < 6.00

molecular target: not listed separately; test: Compound was evaluated for its ability to displace [3H]DPAT from 5-HT1A receptor in homogenates of bovine hippocampus

Row | Structure (SMILES) | pKi
14 | CCCN(CCC)C1Cc2cccc3c2n(c(=O)n3C)C1 (stereo not given) | 6.91
15 | CCCCNC1Cc2cccc3[nH]c(=O)n(c23)C1 (stereo not given) | < 6.00
